Laboratory results reported in US20010049389A1, “Arthropod-controlling composition” (priority 2000, published 2001).

Tests used:
Type in all cases: in vivo
[1] = system: female adult common mosquitoes (Culex pipiens pallens); test: Test Example 6: mosquito-coil in 0.34 m^3 chamber, knock-down of common mosquitoes; conditions: 1% mosquito-coil (Preparation example 18) burnt in 0.34 m^3 chamber, after 15 minutes
Procedure: On the bottom center of a cubic chamber having 70 cm of side (0.34 m^3), the mosquito-coil obtained in Preparation example 18 was set in a mosquito-coil holder. The mosquito-coil was ignited and the air in the chamber was stirred with a battery-type small electric fun. After that, the mosquito-coil and the electric fun were taken out and twenty female adult common mosquitoes (Culex pipiens pallens) were released into the chamber. After 15 minutes, the knock-down percentage was observed. Reference compound was also tested.

[2] = system: adult German cockroaches (Blattella germanica); test: Test Example 5: heating fumigant (ceramic plate) in 5.8 m^3 chamber, German cockroaches; conditions: heating fumigant (Preparation example 24, 500 mg) at about 200° C. in 5.8 m^3 chamber
Procedure: On the bottom of a cubic chamber having 1.8 m of side (5.8 m^3), the heating fumigant (ceramic plate) obtained in Preparation example 24 with an electric heater was set in the center. Two plastic cups were put at two corners in the chamber, wherein each cup has ten (5 males and 5 females) adult German cockroaches (Blattella germanica) therein. Two hours after turning on an electric current, the ceramic plate was heated to about 200° C. (200±5° C.) and the active ingredient was vaporized. The heating temperature was estimated by measuring a surface temperature of the ceramic plate with radiation pyrometer (TR-0506C produced by Minolta Company) in advance. Then, the knocked-down cockroaches were counted and the knock-down percentage was calculated. Further, the cockroaches were transferred to a clean plastic cup and given foods and water. The mortality was observed after 7 days.

[3] = system: adult houseflies (Musca domestica); test: Test Example 1: oil solution spray in glass chamber, knock-down of houseflies; conditions: 0.7 ml of 0.5% oil solution (Preparation example 9) sprayed in 0.34 m^3 glass chamber
Procedure: Ten (5 males and 5 females) adult houseflies (Musca domestica) were released in a glass chamber (70 cm cube, capacity: 0.34 m^3). Seven-tenth milliliter (0.7 ml) of the oil solution obtained in Preparation example 9 was applied into the chamber with a spray gun at a pressure of 0.9 kg/cm^2. Fifteen minutes after spraying, the knocked-down houseflies were counted. Reference compound was also tested.

[4] = system: 3-instar larvae of diamondback moth (Plutella xylostella); test: Test Example 18: treated cabbage leaf disc, feeding damage by diamondback moth; conditions: 50 μg on cabbage leaf disc of 1 cm diameter, after 24 hours
Procedure: (§1) A methanol solution (50 μg/20 μl) of the Pyrone Compound was prepared. The solution (20 μl) was painted on a cut leaf disc of cabbage (1 cm in diameter). After vaporizing methanol, the leaf disc was put on a filter paper, which was wet with 1 ml of water, in Petri dish making the painted surface upside. Two 4-instar larvae of tobacco cutworm (Spodoptera litura) were put in the Petri dish. After 24 hours, the damage of the leaf disc was observed and compared with the test result of the non-treated disc. The tests were repeated 5 times.
The same procedure was performed as in Test example 17 except that five 3-instar larvae of diamondback moth (Plutella xylostella) was used in place of tobacco cutworm (Spodoptera litura).

[5] = system: 4-instar larvae of tobacco cutworm (Spodoptera litura); test: Test Example 17: treated cabbage leaf disc, feeding damage by tobacco cutworm; conditions: 50 μg on cabbage leaf disc of 1 cm diameter, after 24 hours, 5 repetitions
Procedure: as §1

[6] = system: first-instar larvae of summer fruit tortrix (Adoxophyes orana fasciata); test: Test Example 19: treated artificial food, summer fruit tortrix larvae; conditions: 1 ml of 500 ppm dilution (Preparation example 2) in 6 g artificial food, after 6 days
Procedure: The formulation obtained in Preparation example 2 was diluted with water to make the concentration of the Pyrone Compound to 500 ppm. One milliter (1 ml) of the dilution was added to 6 g of artificial food (Insecta LF produced by Nihon Nosankogyo Co.) in plastic cup having 5.5 cm in diameter. Thirty first-instar larvae of summer fruit tortrix (Adoxophyes orana fasciata) were put into the plastic cup. After 6 days, the mortality was 90% or more.

[7] = system: centipede (Scolopendra subspinipes mutilans); test: Test Example 22: oil-based aerosol spray, centipede; conditions: about 1000 mg of 1.0% oil-based aerosol sprayed, after 3 days
Procedure: According to Preparation examples 10-14, 1.0% oil-based aerosol of the Pyrone Compound was obtained. A container (12.5 cm in diameter, 17.5 cm in height, bottom covered 16-mesh iron net and inside wall painted butter for preventing tested pill bugs to escape) having a centipede (Scolopendra subspinipes mutilans) therein was set on the bottom center of a glass cylinder having 20 cm in diameter and 60 cm in height. About 1000 mg of the above oil-based aerosol were sprayed to the centipede from the upper part of the cylinder. After 30 seconds, the centipede was taken out and put into a clean plastic cup and given food and water. It was observed that the centipede was dead after 3 days.

[8] = system: adult copra mites (Tyrophagus putrescentiae); test: Test Example 11: treated drawing paper, copra mites; conditions: drawing paper 800 mg/m^2, 25° C., 75% humidity, 24 hours
Procedure: On a black drawing paper having 38 mm in diameter, 0.2 ml of an acetone solution of the Pyrone Compound was added dropwise and air-dried. The treated dosage was 800 mg/m^2. The drawing paper was set on an aluminum plate having 38 mm in diameter and adhesives were put on the edge to prevent for tested mites to escape. About 30 adult copra mites (Tyrophagus putrescentiae) were released on the drawing paper and kept at 25° C. and 75% of humidity for 24 hours. After that, the mortality was observed. The result was 93%.

[9] = system: whiteflies (Bemisia argentifolii); test: Test Example 16: foliar spray on cabbage, whiteflies; conditions: 500 ppm dilution of flowable (Preparation example 7), 30 ml sprayed, after 6 days
Procedure: About 50 whiteflies (Bemisia argentifolii) were put on a cabagge leaf (in first-leaf stage) grown in a 90 ml plastic cup.
The formulation obtained in Preparation example 7 was diluted with water containing a spreading agent (Tokurino produced by Nihon Nohyaku Co.) to make the concentration of the Pyrone Compound to 500 ppm. Thirty milliliters (30 ml) of the dilution were sprayed to the cabbage (in first-leaf stage) and air-dried. The plastic pot was allowed to stand at 25±2° C. in a greenhouse. After 6 days, the mortality was 90% or more.

[10] = system: cotton aphids (Aphis gossypii); test: Test Example 15: foliar spray on cucumber, cotton aphids; conditions: 500 ppm dilution of flowable (Preparation example 7), 30 ml sprayed, after 6 days
Procedure: About 30 cotton aphids (Aphis gossypii) were put on a cucumber leaf (in first-leaf stage) grown in a 90 ml plastic cup.
Next day, the formulation obtained in Preparation example 7 was diluted with water containing a spreading agent (Tokurino produced by Nihon Nohyaku Co.) to make the concentration of the Pyrone Compound to 500 ppm. Thirty milliliters (30 ml) of the dilution were sprayed to the cucumber and air-dried. The plastic pot was put in a container and allowed to stand at 22±2° C. in a greenhouse. After 6 days, the mortality was 90% or more.

Compound: Cc1cc(O)c(C(=O)CC(C)C)c(=O)o1 [The Pyrone Compound]
- Knock-down percentage (%) [1]: 98%
- Mortality (%) ([2]; after 7 days): 100%
- Knock-down percentage (%) ([2]; two hours): 100%
- Knock-down percentage (%) 15 min. after spraying [3]: 95%
- damage of the leaf disc compared with the non-treated disc [4]: clearly smaller
- damage of the leaf disc compared with the non-treated disc [5]: clearly smaller
- mortality [6]: ≥ 90%
- state of the centipede after spraying [7]: dead
- mortality [8]: 93%
- mortality [9]: ≥ 90%
- mortality [10]: ≥ 90%
